Laboratory results reported in patent US20240000942A1, “Craniofacial implant made of polyether ether ketone (PEEK) with deposits to store and release active substances or active Ingredient” (Arcosystem SPA, priority 2022, published 2024).
Where “and” joins values, the source holds several entries; their conditions need not be identical. Equal values may be shown once. Entries after “also recorded” stand apart in the source; their conditions may differ.

Assay: Stability of the vancomycin solution within the implant reservoir (HPLC)
Format: physicochemical
Procedure: For this, a time zero (To) sample corresponding to a sample that was immediately analyzed after its reconstitution was analyzed, along with a sample that was left to rest for 24 hours within the implant. In this way, results from the 24 hour time frame were compared with those of time zero as sample areas and degradation percentage at 24 hours.
Shaking up to the complete solution of the lyophilized powder, taking 0.5 mL of said ampule, and diluted with physiological saline solution up to 5 mL of final volume. This 5 mL of solution is injected in the reservoir of the implant. […] Said 0.5 mL were diluted up to 5 mL of final volume using 0.2M potassium dibasic phosphate buffer adjusted to pH 7.4. Then, using a syringe, said volume was loaded in the reservoir or capsule of the implant, the implant was then sealed and incorporated in an empty beaker. Nominal concentration of the solution within the reservoir is […].
After 24 hours, the chamber or reservoir was opened to extract the 0.5 mL of the solution contained within. Of said 0.5 mL extracted from the reservoir, a 0.1 mL aliquot is taken that then is transferred to a 100 mL flask for its analysis using HPLC, considering the same calibration and standard curves that were described for the previous example.

Q: Which HPLC sample area (24 hour period within the implant) does the source give for `CN[C@H](CC(C)C)C(=O)N[C@H]1C(=O)N[C@@H](CC(N)=O)C(=O)N[C@H]2C(=O)N[C@H]3C(=O)N[C@H](C(=O)N[C@H](C(=O)O)c4cc(O)cc(O)c4-c4cc3ccc4O)[C@H](O)c3ccc(c(Cl)c3)Oc3cc2cc(c3O[C@@H]2O[C@H](CO)[C@@H](O)[C@H](O)[C@H]2O[C@H]2C[C@](C)(N)[C@H](O)[C@H](C)O2)Oc2ccc(cc2Cl)[C@H]1O` [vancomycin] here?
A: Its HPLC sample area is 94679 and 94744.

Q: And the HPLC sample area (24 hour period within the implant, mean)?
A: Its HPLC sample area is 94711.5.

Q: And the “degradation of vancomycin within the implant (in words)” value (24 hours)?
A: Its value is “not significant; also recorded: no indication of significative degradation”.

Q: What about the HPLC sample area (Time 0 (analyzed immediately after reconstitution)) of the same molecule?
A: The HPLC sample area was 948050 and 948671.

Q: And the HPLC sample area (Time 0 (analyzed immediately after reconstitution), mean)?
A: The HPLC sample area was 948360.5.
